Test results taken from paper PMC4984800, “A first in man, dose-finding study of the mTORC1/mTORC2 inhibitor OSI-027 in patients with advanced solid malignancies” (British Journal of Cancer, 2016).
Read-outs that look alike come from different tables or passages of the source.

How the values were obtained:
[1] = First-in-human trial: pharmacokinetics in plasma and urine; assay type: in vivo; conditions: for AUC(0-t): read-out: AUC24hr
Description: Blood and urine samples were collected at prespecified time points for 24 h after initial dose and at days 2–3 (S2) and after multiple doses on days 3–4 (S1) and 22–23 (S3) across dose levels. Predose samples were collected on days 8, 15 and 22. Urine samples were collected during cycle 1.
Descriptive statistics were used to summarise the safety data, including all patients who received at least one dose of OSI-027. All patients who completed the pharmacokinetic sampling were included in the PK analyses, which used descriptive statistics to summarise AUC0–∞, AUC0–t, Cmax, Clast, Tmax, Tlast, %AUC extrapolated, T1/2, clearance (Cl/F) and volume of distribution (Vz/F). Exploratory analysis were planned to correlate pharmacodynamics and pharmacokinetics. Response to treatment was evaluated according to Response Evaluation Criteria in Solid Tumors (RECIST) ([Therasse et al, 2000]).

pPRAS40 (Thr246) in PBMC = assay: Pharmacodynamics in PBMC: pPRAS40 (Thr246), mTORC2 effector; assay type: in vivo, human
Description: Drug-mediated inhibition of the mTORC1 and mTORC2 signalling was evaluated through assessing modulation of phospho-4EBP1 and phospho-PRAS40 in PBMC, as well as phospho-4EBP1 and phospho-S6 in tumour biopsies. Blood aliquots were collected prior to start dosing and at prespecified time points during the first course of treatment. Fresh tumour biopsies were obtained from selected patients during the dose escalation stage and from all patients in the expansion cohorts, at baseline and during cycle 1.
Drug-mediated inhibition of mTORC1 and mTORC2 signalling by OSI-027 was assessed by measuring inhibition of their effectors p4EBP1 (Thr37/46) and pPRAS40 (Thr246), respectively, in PBMC. In addition, paired tumour biopsies at screening and during first month of therapy were used to study target modulation.

[2] = human, plasma, oral, 40 mg, Schedule 2, 40 mg, N=3, median (range)
[3] = human, plasma, oral, 40 mg, Schedule 3, 40mg, Day 1, N=6, median (range)
[4] = human, plasma, oral, 40 mg, Schedule 3, 40mg, Day 22, N=4, median (range)
[5] = human, plasma, oral, 45 mg, Schedule 1, 45 mg, Day 1, N=3, median (range)
[6] = human, plasma, oral, 45 mg, Schedule 1, 45 mg, Day 3, N=3, median (range)
[7] = human, plasma, oral, 50 mg, Schedule 3, 50 mg, Day 1, N=3, median (range)
[8] = human, plasma, oral, 50 mg, Schedule 3, 50 mg, Day 22, N=1
[9] = human, plasma, oral, 65 mg, Schedule 1, 65 mg, Day 1, N=3, median (range)
[10] = human, plasma, oral, 65 mg, Schedule 1, 65 mg, Day 3, N=3, median (range)
[11] = human, plasma, oral, 80 mg, Schedule 2, 80 mg, N=4, median (range)
[12] = human, plasma, oral, 90 mg, Schedule 1, 90 mg, Day 1, N=14, median (range)
[13] = human, plasma, oral, 90 mg, Schedule 1, 90 mg, Day 3, N=14, median (range)
[14] = human, plasma, oral, 120 mg, Schedule 1, 120 mg, Day 1, N=14, median (range)
[15] = human, plasma, oral, 120 mg, Schedule 1, 120 mg, Day 3, N=13, median (range)
[16] = human, plasma, oral, 160 mg, Schedule 1, 160 mg, Day 1, N=5, median (range)
[17] = human, plasma, oral, 160 mg, Schedule 1, 160 mg, Day 3, N=5, median (range)
[18] = human, plasma, oral, 160 mg, Schedule 2, 160 mg, N=3, median (range)
[19] = human, plasma, oral, 240 mg, Schedule 2, 240mg, N=15, median (range)

Question: For `COc1cccc2cc(-c3nc([C@H]4CC[C@H](C(=O)O)CC4)n4ncnc(N)c34)[nH]c12` [OSI-027], which half-life ([1]; human, plasma, oral, 35 mg, Schedule 3, 35 mg, Day 22, N=4, median (range), read-out: T1/2 (converted)) is on record?
Answer: The half-life was 11.1 h.

Question: What about the AUC(0-inf) [1, 2] of the same compound?
Answer: Its AUC(0-inf) is 28600 ng·h/mL.

Question: And the Cmax [1, 2]?
Answer: The Cmax was 2510 ng/mL.

Question: What about the half-life ([1]; human, plasma, oral, 40 mg, Schedule 2, 40 mg, N=3, median (range), read-out: T1/2 (converted)) of the same compound?
Answer: Its half-life is 12.4 h.

Question: What about the AUC(0-inf) [1, 3] of the same compound?
Answer: The AUC(0-inf) was 77100 ng·h/mL.

Question: And the Cmax [1, 3]?
Answer: Its Cmax is 3140 ng/mL.

Question: And the half-life ([1]; human, plasma, oral, 40 mg, Schedule 3, 40mg, Day 1, N=6, median (range), read-out: T1/2 (converted))?
Answer: Its half-life is 17.8 h.

Question: And the Cmax [1, 4]?
Answer: The Cmax was 3000 ng/mL.

Question: And the AUC(0-t) [1, 4]?
Answer: The AUC(0-t) was 50100 ng·h/mL.

Question: What about the half-life ([1]; human, plasma, oral, 40 mg, Schedule 3, 40mg, Day 22, N=4, median (range), read-out: T1/2 (converted)) of the same compound?
Answer: Its half-life is 15.9 h.

Question: What about the AUC(0-inf) [1, 5] of the same compound?
Answer: Its AUC(0-inf) is 31100 ng·h/mL.

Question: What about the Cmax [1, 5] of the same compound?
Answer: Its Cmax is 2770 ng/mL.

Question: What about the half-life ([1]; human, plasma, oral, 45 mg, Schedule 1, 45 mg, Day 1, N=3, median (range), read-out: T1/2 (converted)) of the same compound?
Answer: The half-life was 7.65 h.

Question: What about the Cmax [1, 6] of the same compound?
Answer: Its Cmax is 3850 ng/mL.

Question: And the AUC(0-t) [1, 6]?
Answer: Its AUC(0-t) is 35200 ng·h/mL.

Question: And the half-life ([1]; human, plasma, oral, 45 mg, Schedule 1, 45 mg, Day 3, N=3, median (range), read-out: T1/2 (converted))?
Answer: The half-life was 9.14 h.

Question: What about the AUC(0-inf) [1, 7] of the same compound?
Answer: The AUC(0-inf) was 46200 ng·h/mL.

Question: And the Cmax [1, 7]?
Answer: The Cmax was 3040 ng/mL.

Question: What about the half-life ([1]; human, plasma, oral, 50 mg, Schedule 3, 50 mg, Day 1, N=3, median (range), read-out: T1/2 (converted)) of the same compound?
Answer: Its half-life is 10.3 h.

Question: What about the Cmax [1, 8] of the same compound?
Answer: Its Cmax is 1110 ng/mL.

Question: And the AUC(0-t) [1, 8]?
Answer: Its AUC(0-t) is 17200 ng·h/mL.

Question: What about the AUC(0-inf) [1, 9] of the same compound?
Answer: The AUC(0-inf) was 50000 ng·h/mL.

Question: What about the Cmax [1, 9] of the same compound?
Answer: The Cmax was 4750 ng/mL.

Question: And the half-life ([1]; human, plasma, oral, 65 mg, Schedule 1, 65 mg, Day 1, N=3, median (range), read-out: T1/2 (converted))?
Answer: The half-life was 7.01 h.

Question: What about the Cmax [1, 10] of the same compound?
Answer: Its Cmax is 5550 ng/mL.

Question: What about the AUC(0-t) [1, 10] of the same compound?
Answer: The AUC(0-t) was 64400 ng·h/mL.

Question: What about the half-life ([1]; human, plasma, oral, 65 mg, Schedule 1, 65 mg, Day 3, N=3, median (range), read-out: T1/2 (converted)) of the same compound?
Answer: The half-life was 8.46 h.

Question: What about the AUC(0-inf) [1, 11] of the same compound?
Answer: The AUC(0-inf) was 52600 ng·h/mL.

Question: And the Cmax [1, 11]?
Answer: The Cmax was 3890 ng/mL.

Question: And the half-life ([1]; human, plasma, oral, 80 mg, Schedule 2, 80 mg, N=4, median (range), read-out: T1/2 (converted))?
Answer: Its half-life is 9.22 h.

Question: What about the AUC(0-inf) [1, 12] of the same compound?
Answer: Its AUC(0-inf) is 90300 ng·h/mL.

Question: What about the Cmax [1, 12] of the same compound?
Answer: The Cmax was 5440 ng/mL.

Question: What about the half-life ([1]; human, plasma, oral, 90 mg, Schedule 1, 90 mg, Day 1, N=14, median (range), read-out: T1/2 (converted)) of the same compound?
Answer: The half-life was 12.1 h.

Question: And the Cmax [1, 13]?
Answer: Its Cmax is 7010 ng/mL.

Question: What about the AUC(0-t) [1, 13] of the same compound?
Answer: Its AUC(0-t) is 69600 ng·h/mL.

Question: What about the half-life ([1]; human, plasma, oral, 90 mg, Schedule 1, 90 mg, Day 3, N=14, median (range), read-out: T1/2 (converted)) of the same compound?
Answer: Its half-life is 12 h.

Question: What about the AUC(0-inf) [1, 14] of the same compound?
Answer: The AUC(0-inf) was 87600 ng·h/mL.

Question: And the Cmax [1, 14]?
Answer: The Cmax was 5590 ng/mL.

Question: What about the half-life ([1]; human, plasma, oral, 120 mg, Schedule 1, 120 mg, Day 1, N=14, median (range), read-out: T1/2 (converted)) of the same compound?
Answer: The half-life was 10.2 h.

Question: What about the Cmax [1, 15] of the same compound?
Answer: Its Cmax is 5450 ng/mL.

Question: What about the AUC(0-t) [1, 15] of the same compound?
Answer: Its AUC(0-t) is 54500 ng·h/mL.

Question: What about the half-life ([1]; human, plasma, oral, 120 mg, Schedule 1, 120 mg, Day 3, N=13, median (range), read-out: T1/2 (converted)) of the same compound?
Answer: The half-life was 12.8 h.

Question: What about the AUC(0-inf) [1, 16] of the same compound?
Answer: Its AUC(0-inf) is 131000 ng·h/mL.

Question: What about the Cmax [1, 16] of the same compound?
Answer: The Cmax was 9330 ng/mL.

Question: And the half-life ([1]; human, plasma, oral, 160 mg, Schedule 1, 160 mg, Day 1, N=5, median (range), read-out: T1/2 (converted))?
Answer: Its half-life is 10.3 h.

Question: What about the Cmax [1, 17] of the same compound?
Answer: The Cmax was 11000 ng/mL.

Question: And the AUC(0-t) [1, 17]?
Answer: The AUC(0-t) was 106000 ng·h/mL.

Question: And the half-life ([1]; human, plasma, oral, 160 mg, Schedule 1, 160 mg, Day 3, N=5, median (range), read-out: T1/2 (converted))?
Answer: Its half-life is 11.9 h.

Question: What about the AUC(0-inf) [1, 18] of the same compound?
Answer: Its AUC(0-inf) is 267000 ng·h/mL.

Question: What about the Cmax [1, 18] of the same compound?
Answer: Its Cmax is 7620 ng/mL.

Question: And the half-life ([1]; human, plasma, oral, 160 mg, Schedule 2, 160 mg, N=3, median (range), read-out: T1/2 (converted))?
Answer: The half-life was 24.7 h.

Question: And the AUC(0-inf) [1, 19]?
Answer: The AUC(0-inf) was 125000 ng·h/mL.

Question: And the Cmax [1, 19]?
Answer: Its Cmax is 8780 ng/mL.

Question: And the half-life ([1]; human, plasma, oral, 240 mg, Schedule 2, 240mg, N=15, median (range), read-out: T1/2 (converted))?
Answer: Its half-life is 13.8 h.

Question: What about the half-life ([1]; human, plasma, oral, patients, estimate, based on the weekly dose schedule, read-out: half-life (converted)) of the same compound?
Answer: Its half-life is ~14 h.

Question: What about the half-life ([1]; human, plasma, oral, patients, range over groups, read-out: half-life, range) of the same compound?
Answer: The half-life was 8 to 25 h.

Question: And the Tmax ([1]; human, plasma, oral, patients, across dose levels)?
Answer: Its Tmax is ≤ 4 h.

Question: What about the exposure versus dose ([1]; patients) of the same compound?
Answer: Its exposure versus dose is “dose proportional”.

Question: What about the “urinary excretion of unchanged OSI-027, range” value ([1]; patients) of the same compound?
Answer: Its value is 1–7%.

Question: And the half-life ([1]; patients, estimate, based on the weekly dose schedule)?
Answer: The half-life was 14 h.

Question: And the “inhibition of pPRAS40 in PBMC” value (pPRAS40 (Thr246) in PBMC; 4 h after dosing, doses over 30 mg, almost universal)?
Answer: Its value is “Over 50%”.

Question: What about the “inhibition of pPRAS40 in PBMC” value (pPRAS40 (Thr246) in PBMC; S1, 90 mg, during the 3 days on treatment) of the same compound?
Answer: Its value is “Over 50%”.

Question: And the “target inhibition (pPRAS40) in PBMC” value (pPRAS40 (Thr246) in PBMC; S1, 160 mg, during the 4-days off treatment, most patients)?
Answer: The value was “Over 50%”.
